Consider 1 molecule from patent publication US20230372364A1, “METHOD OF TREATING GABA MEDIATED DISORDERS” (Eliem Therapeutics (UK) Ltd, priority 2020, published 2023).

Series [1] deals with rodent model of depression. Briefly: Forced swim test - Depression. The format is in vivo. Conditions: all doses listed in the cell.
The test system of a further series is human subjects. Conditions: cited from earlier work.
The conditions of series [2]: human, cited from earlier work.
The conditions of series [3]: human, cited from earlier work. This is another data set of the same source.
The mark [4] stands for this setting: 30 mg, day 7 MAD (MTD), morning dosing.

SMILES strings stand for the structures. Where two headings read alike, the source gives them in different places.

As usually defined, the Tmax is the time from dosing to the highest level. On to `C[C@@]1(O)CC[C@H]2[C@H](CC[C@@H]3[C@@H]2CC[C@]2(C)[C@@H](C(=O)Cn4cc(C#N)cn4)CC[C@@H]32)C1` [Sage-217, zuranolone], for which the “Doses in Forced swim test - Depression, * = significantly efficacious dose” value in series [1] is reported as 1 - 3* mg/kg. Further, in the series with human subjects (20 mg, n-188), the “Any adverse event, (%)” value was “(50.0) %”; the “Diarrhea, (%)” value was “(5.9) %”; the “Dizziness, (%)” value is listed as “(7.4) %”; the “Fatigue, (%)” value was “(1.6) %”. In the series on human subjects (20 mg, n-188), the “Headache, (%)” value is reported as “(11.2) %”; the “Nausea, (%)” value was “(5.3) %”; the “Sedation, (%)” value is given as “(5.9) %”; the “Somnolence, (%)” value is listed as “(5.9) %”. In the series with human subjects (30 mg, n-192), the “Any adverse event, (%)” value is “(54.2) %”; the “Diarrhea, (%)” value is recorded as “(6.3) %”; the “Dizziness, (%)” value is “(5.7) %”; the “Fatigue, (%)” value is “(6.8) %”. For the same molecule, in the series with human subjects (30 mg, n-192), the “Headache, (%)” value is reported as “(6.3) %”; the “Nausea, (%)” value was “(3.6) %”; the “Sedation, (%)” value is listed as “(4.7) %”; the “Somnolence, (%)” value is on record as “(6.8) %”. The time of peak concentration (Tmax) in series [2] (55 mg SAD MTD) is 1.24 h. The “SAD MTD” value in series [2] (single ascending dose) was “SAGE-217 55 mg SAD MTD”. The “ratio of Cmax/trough on day 7” value in series [3] (30 mg daily in the evening in a fed state) is listed as 5.88. Also, in series [3] (setting [4]), the AUC0-inf was 833.2 ng·h/mL, the Cmin was 12.46 ng/mL and the “Ratio (Cmax/Cmin)” value is given as 9.24. Moreover, in series [3] (multiple ascending dose), the “MAD MTD” value was “SAGE-217 30 mg”.
